The source of these data is patent publication US20020164581A1 (priority 2001, published 2002).

The subject of assay [1] is bovine aortic endothelial cells (bAECs). The procedure:
Primary cultures of bAECs were established from five female beef cattle (ranging in age from 1 to 2 years old) according to the method of Fenselau and Mello (Cancer Res. 36:3269-3273, 1976). Pooled cells were routinely maintained under humidified air (5% CO2) at 37° C. in Dulbecco's modified medium supplemented with 10% fetal bovine serum (FBS). Cells from the second to the fifth passages were used in these studies.
In the studies in which male and female bAECs were compared, batches of bAECs were independently established from 5 female and 4 male beef cattle (ranging in age from 1 to 2 years old) according to the method of Fenselau and Mello (Cancer Res. 36:3269-3273, 1976). Otherwise, the cells were treated and assessed as described in the paragraph above.
Prior to E2 pretreatment, cells were grown in phenol red-free DMEM supplemented with 10% dextran/charcoal-stripped FBS for at least 1 passage (3-4 days). Phenol red-free Dulbecco's modified medium was used to avoid potential estrogenic interference. Serum steroid deprivation was conducted according to the conditions described by Yeh et al. (Proc. Natl. Acad. Sci. USA 95:5527-5532, 1998). The E2 level in the stripped serum was assayed using an [^125I] 17β-estradiol radioimmunoassay kit (TKE21, Diagnostic Products Corporation, Los Angeles, Calif.). […] The cells grown in E2-free environments were plated onto Falcon 24-well Primariae™ plates at a density of 5×10^4 cells/well. E2 in dimethylsulfoxide (DMSO) was added to each well at final concentrations ranging from 1 nM to 10 μM 3 hours after plating, and the cells were then incubated for 24 hours (a duration commonly used for the studies of the genomic effects of E2) at 37° C. Control cells were treated with a corresponding amount of DMSO (a final concentration 0.05%).
Prior to oxidative challenge, E2-containing media was removed, and the cells were rinsed with PBS twice and re-fed with serum-free fresh medium. Subsequently, paraquat was added to the cells at the indicated doses (0.1-2.0 mM) for 3 hours. The oxidative challenge was terminated by aspiration of the oxidant-containing medium and quickly rinsing the cells twice with PBS. The cells were allowed to recover for 48 hours in medium supplemented with 10% regular FBS to exclude the possibility that different concentrations of E2 interfere with the cellular recovery processes.
Cell survival after oxidative challenge was assessed with a 3-(4,5-dimethylthiazol-2-yl) 2,5 diphenyltetrazolium bromide (MTT) assay in which the mitochondrial dehydrogenase activity of viable cells reduces MTT to a blue formazan product (Carmichael et al. Cancer Res. 47:936-942, 1987). Our prior conditions were employed (Si et al., Endocrine in press, 2001). Briefly, cells were treated with 1/10 volume of MTT solution (5 mg/ml in PBS) and incubated at 37° C. for 2 hours. The supernatant was then removed, and 600 μl of lysis buffer (50% dimethyl formamide, 5% sodium dodecyl sulphate, 0.35 M acetic acid, 50 mM HCl) was added to each well. Following cell lysis, the absorbency was measured at 570 nm and used as an indicator of relative cell survival. The surviving fraction was calculated as compared to the cells without paraquat challenge.
Two experimental groups were created. In the first group, E2 was added only during the 24-hour pretreatment period. In the second group, E2 was added only during the 3-hour paraquat exposure.

Assay [2] concerns glutathione peroxidase (GPX). The experiment in a line: GPX activity in cell lysate (NADPH oxidation). The assay is classed as cell-based, bovine. Here is the method:
Cells pretreated with different concentrations of E2 for 24 hours were harvested in a solution containing 50 mM Tris-HCl (pH 7.4), 1 mM EDTA, 2 μg/ml pepstatin A, 10 μg/ml benzamidine, and 10 μg/ml trypsin inhibitor. The cells were then lysed on ice by sonication at a setting of 50 mW, with 3×15 set cycles using a Cole-Parmer Ultrasonic Homogenizer (Chicago, Ill.). Protein concentrations in the samples were determined by the Bradford method with bovine serum albumin as a standard (Bradford, Anal. Biochem. 72:248-254, 1976).
GPX activity was determined by a modified method of Flohe and Gunzler (Methods Enzymol. 105:114-121, 1984). One unit of GPX activity is defined as the amount of protein that oxidizes 1 nmole of β-NADPH per minute. In this assay, 100 μl of cell homogenate (about 100 μg protein) was added to 800 μl of phosphate buffer (0.1 M NaH2PO4, 0.1 M Na2HPO4, 0.1 mM EDTA, pH 7.0) containing 12.5 mM glutathione (reduced form, GSH), 0.2 mM β-nicotinamide adenine dinucleotide phosphate (reduced form, β-NADPH), and 0.34 U glutathione reductase. This mixture was pre-incubated at 37 C for 10 minutes and then 100 μl of 12 mM t-butyl hydroperoxide was added. The absorbency of the mixture was determined at 340 nm for 3 minutes. The molar extinction coefficient of 6.22 mM/cm was used to determine the activity of GPX.

Where [3] appears, read: 24 h pretreatment, paraquat challenge.

SMILES strings stand for the structures.

In the case of `C[C@]12CC[C@@H]3c4ccc(O)cc4CC[C@H]3[C@@H]1CC[C@@H]2O` [E2, 17β-estradiol], in assay [1], the “E2 dosage that defended cells when present during oxidative challenge” value was 10 µM, the “oxidant protection with E2 present during paraquat exposure” value is reported as “mild but notable oxidant protection”, the “oxidative protection after brief preincubation” value is recorded as “not effective in providing oxidative protection” and the “oxidative resistance (MTT survival)” value is given as “marked augmentation of oxidative resistance”. Moreover, in assay [1], the “protection against subsequent oxidative challenge” value is on record as “acquired significant protection against subsequent oxidative challenge” and the “resistance to paraquat toxicity (cell survival)” value is recorded as “enhanced resistance to the toxic effect of paraquat”. In addition, in assay [1] (setting [3]), the “E2 concentration of optimal protection” value was 1 to 10 nM and the “E2 dosage at which protection gradually declined in magnitude” value was “about 1 μM”. Further, the “protection after brief estrogenic exposure” value in assay [1] (E2 30 minutes only, washed, male or female endothelial cells) is given as “No protection by E2”. Moreover, in assay [1] (cells pretreated with 1 nM E2 for 24 h), the “LD50 of paraquat toxicity in E2-pretreated cells” value is given as “about 1 mM”. The “magnitude of protection at elevated E2” value in assay [1] (female bAECs, E2 0.1-10 μM, P<0.05 vs. 1 nM) is reported as “gradually decreased”. Besides, the “protection against paraquat challenge” value in assay [1] (male bAECs, E2 pretreatment at any tested concentration) was “no protection was seen”. Besides, the “GPX activity elevation relative to untreated cells” value in assay [2] (1 nM E2 pretreatment (Example 8)) is around 2 fold. The GPX activity increase in assay [2] (female bAECs, 24 h 1 nM E2 (Example 12)) is given as around 3 fold.
